According to ChEMBL document CHEMBL1135037 (Bioorg Med Chem Lett, 2002):
pIC50: −log10 of the molar value.

Experiments:
[1] = target: T1, Serine-threonine protein phosphatase 2A regulatory subunit (Gallus gallus, UniProt Q8AWE3); assay: Concentration required to inhibit the action of protein phosphatase 2A
T1 sequence (Q8AWE3 whole entry): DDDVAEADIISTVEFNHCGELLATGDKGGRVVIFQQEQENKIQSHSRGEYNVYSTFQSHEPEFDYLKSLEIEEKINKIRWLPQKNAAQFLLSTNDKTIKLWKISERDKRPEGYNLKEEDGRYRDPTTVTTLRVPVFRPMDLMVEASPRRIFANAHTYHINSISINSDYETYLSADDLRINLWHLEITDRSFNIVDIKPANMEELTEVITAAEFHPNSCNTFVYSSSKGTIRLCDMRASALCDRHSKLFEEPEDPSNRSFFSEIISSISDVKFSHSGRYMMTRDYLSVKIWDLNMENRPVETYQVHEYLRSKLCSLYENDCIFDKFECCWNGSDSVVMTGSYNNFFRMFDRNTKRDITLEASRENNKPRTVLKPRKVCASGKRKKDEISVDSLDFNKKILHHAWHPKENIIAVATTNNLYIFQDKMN

[2] = target: T2, Serine-threonine protein phosphatase 2A regulatory subunit (Gallus gallus) (UniProt Q8AWE3); assay: Inhibition against PP2A at 100 uM
T2 sequence (whole entry): T1 sequence (Q8AWE3 whole entry)

[3] = Inhibitory concentration against PP1 was determined
[4] = Inhibition against PP1 at 100 uM
[5] = Selectivity was calculated against protein phosphatase 1
Homo sapiens = species on record: Homo sapiens; assay: Selectivity against Protein phosphatase 2A
[6] = Selectivity was evaluated against Protein phosphatase 1

| Compound | pIC50 [1] | inhibition [2] | pIC50 [3] | inhibition [4] | Selectivity [5] | Selectivity (Homo sapiens) | Selectivity [6] |
| --- | --- | --- | --- | --- | --- | --- | --- |
| COC[C@@H]([C@H](O)[C@H](O)C(=O)NCC[C@H](C)c1nc(/C=C/C[C@@H]2O[C@]3(C[C@@H](O)[C@@H]2C)O[C@H]([C@H](C[C@H](O)[C@H](C)[C@H](O)[C@H](C)/C=C(C)/C(C)=C/C=C/C(C)=C\C#N)OC)[C@H](OP(=O)(O)O)C3(C)C)co1)N(C)C [CALYCULIN A] | 8.70 | – | – | – | – | – | – |
| COC(=O)C1C(C(=O)OC)[C@H]2C=C[C@@H]1O2 (some centres not stated) | < 2.70 | 6% | 4.30 | 46% | > 40 | – | – |
| COC(=O)C1C(C(=O)OC)[C@H]2C=C[C@@H]1S2 (some centres not stated) | – | 3% | – | 3% | – | – | – |
| O=C1OC(=O)C2C1[C@@H]1CC[C@H]2O1 (some centres not stated) | – | 97% | 5.62 | 90% | – | – | – |
| C[C@@](O)(/C=C/[C@H]1CC=CC(=O)O1)[C@@H](C[C@@H](O)\C=C/C=C\C=C\CO)OP(=O)(O)O [FOSTRIECIN SODIUM] | 8.47 | – | 3.89 | – | – | > 40000 | – |
| O=C1OC(=O)C2C1[C@@H]1C=C[C@H]2S1 (some centres not stated) | – | 0% | – | 0% | – | – | – |
| C[C@@]12C(=O)OC(=O)[C@]1(C)[C@H]1CC[C@@H]2O1 [CANTHARIDIN] | – | – | 6.80 | – | – | – | – |
| O=C1NC(=O)C2C1[C@@H]1C=C[C@H]2S1 (some centres not stated) | 3.37 | 30% | 4.90 | 87% | – | – | 34 |
